Assay [1] has as its target T1, full-length Xenopus IRBP (Xenopus laevis, UniProt Q7SZI7).
T1 construct: We expressed the full-length IRBP as well as its individual modules as thioredoxin-fusion proteins using pTrxFus and pThioHis vectors; made in house; host or cells: E. coli Top10 (pThioHis)
Nature of the assay: Fluorometric titration (ligand fluorescence enhancement, protein quenching, energy transfer). The class given is binding. From the text: The binding parameters of retinoid-binding proteins including IRBP may be determined by fluorescence spectroscopy. The method utilizes changes in quantum yield occurring during ligand binding. Such changes are represented by enhancement of ligand fluorescence, quenching of intrinsic protein fluorescence, and transfer of energy from protein to bound ligand. Fluorescence enhancement occurs if the quantum yield of the ligand's fluorescence is higher in the hydrophobic environment of the ligand-binding domain compared to that outside of the domain.
[…] We previously derived an equation that is generally useful for describing such quantum yield changes that are consequent upon ligand binding. This equation has been previously applied to the analysis of binding by monitoring the enhancement of retinol fluorescence. In this case, […], the fluorescence enhancement (Fenh) depends on the total retinol concentration (Rt), the dissociation constant (Kd ^all-trans), the number of retinol-binding sites per protein molecule (N) and the total protein concentration (Pt).
Assuming that there is a single type of noninteracting site on the protein, (Fenh) is expected to be linearly related to the concentration of bound retinol molecules. Fenh is given by the relation
Fenh=C1+C2[Rtall−trans−(Rtall−trans+NPt+Kdall−trans)^2−4NPtRtall−trans] MathType@MTEF@5@5@+=feaafiart1ev1aaatCvAUfKttLearuWrP9MDH5MBPbIqV92AaeXatLxBI9gBaebbnrfifHhDYfgasaacH8akY=wiFfYdH8Gipec8Eeeu0xXdbba9frFj0=OqFfea0dXdd9vqai=hGuQ8kuc9pgc9s8qqaq=dirpe0xb9q8qiLsFr0=vr0=vr0dc8meaabaqaciaacaGaaeqabaqabeGadaaakeaacqWGgbGrdaWgaaWcbaGaemyzauMaemOBa4MaemiAaGgabeaakiabg2da9iabdoeadnaaBaaaleaacqaIXaqmaeqaaOGaey4kaSIaem4qam0aaSbaaSqaaiabikdaYaqabaGcdaWadaqaaiabdkfasnaaDaaaleaacqWG0baDaeaacqWGHbqycqWGSbaBcqWGSbaBcqGHsislcqWG0baDcqWGYbGCcqWGHbqycqWGUbGBcqWGZbWCaaGccqGHsisldaGcaaqaamaabmaabaGaemOuai1aa0baaSqaaiabdsha0bqaaiabdggaHjabdYgaSjabdYgaSjabgkHiTiabdsha0jabdkhaYjabdggaHjabd6gaUjabdohaZbaakiabgUcaRiabd6eaojabdcfaqnaaBaaaleaacqWG0baDaeqaaOGaey4kaSIaem4saS0aa0baaSqaaiabdsgaKbqaaiabdggaHjabdYgaSjabdYgaSjabgkHiTiabdsha0jabdkhaYjabdggaHjabd6gaUjabdohaZbaaaOGaayjkaiaawMcaamaaCaaaleqabaGaeGOmaidaaOGaeyOeI0IaeGinaqJaemOta4Kaemiuaa1aaSbaaSqaaiabdsha0bqabaGccqWGsbGudaqhaaWcbaGaemiDaqhabaGaemyyaeMaemiBaWMaemiBaWMaeyOeI0IaemiDaqNaemOCaiNaemyyaeMaemOBa4Maem4CamhaaaqabaaakiaawUfacaGLDbaaaaa@8490@
The equation was fit to the data by nonlinear least-squares analysis. […] For the quenching studies the inner filter effect was accounted for by graphical correction as previously described. Fluorescence measurements were made using an SLM 8000TM C photon counting spectrofluorometer corrected for wavelength dependence of source energy and detector response.

The target of assay [2] is T2, Xenopus IRBP Module 3 (Xenopus laevis, UniProt Q7SZI7).
T2 construct: cDNAs corresponding to the full-length IRBP, module 1, and module 2 were expressed in pThioHis; modules 3 and 4 were expressed in pTrxFus; made in house; host or cells: E. coli GI724 / GI698 (pTrxFus)
T2 sequence (Q7SZI7 616-912): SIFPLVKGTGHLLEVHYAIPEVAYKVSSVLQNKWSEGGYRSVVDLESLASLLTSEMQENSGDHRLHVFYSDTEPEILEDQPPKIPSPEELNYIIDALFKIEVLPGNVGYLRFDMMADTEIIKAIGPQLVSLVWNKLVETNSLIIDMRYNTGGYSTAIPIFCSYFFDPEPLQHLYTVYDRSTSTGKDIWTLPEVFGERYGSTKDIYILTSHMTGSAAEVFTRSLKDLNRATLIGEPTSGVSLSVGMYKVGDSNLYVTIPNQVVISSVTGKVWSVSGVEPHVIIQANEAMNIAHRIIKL
The assay can be described thus: Competitive fluorescence titration of all-trans retinol with 11-cis retinaldehyde. The class given is binding. To be noted: protein 1.10 μM. The protocol:
Figure 9 Competitive inhibition by 11-cis retinaldehyde of all-trans retinol binding to the individual modules of Xenopus IRBP. Binding of all-trans retinol to the individual modules was measured by fluorescence enhancement in the presence of varying amounts of 11-cis retinal. Panels A through D correspond to modules 1 through 4 respectively. […] Three dimensional nonlinear regression was used to determine the number of binding sites, the dissociation constant of all-trans retinol, and the dissociation constant of 11-cis retinal for each of the individual modules. The concentrations of the proteins used in the titrations were as follows: module 1 (0.99 μM; panel A); module 2 (1.10 μM; panel B); module 3 (1.10 μM; panel C); module 4 (1.00 μM; panel D).
To describe the displacement of all-trans retinol by 11-cis retinaldehyde, Equation 1 was modified to take into account the competition between the two ligands. The apparent dissociation constants for all-trans retinol measured under these conditions is related to the dissociation constant of 11-cis retinaldehyde through the following expression.
Kapp=Kdall−trans[1+Rt11−cis/Kd11−cis] MathType@MTEF@5@5@+=feaafiart1ev1aaatCvAUfKttLearuWrP9MDH5MBPbIqV92AaeXatLxBI9gBaebbnrfifHhDYfgasaacH8akY=wiFfYdH8Gipec8Eeeu0xXdbba9frFj0=OqFfea0dXdd9vqai=hGuQ8kuc9pgc9s8qqaq=dirpe0xb9q8qiLsFr0=vr0=vr0dc8meaabaqaciaacaGaaeqabaqabeGadaaakeaacqWGlbWsdaWgaaWcbaGaemyyaeMaemiCaaNaemiCaahabeaakiabg2da9iabdUealnaaDaaaleaacqWGKbazaeaacqWGHbqycqWGSbaBcqWGSbaBcqGHsislcqWG0baDcqWGYbGCcqWGHbqycqWGUbGBcqWGZbWCaaGcdaWadaqaaiabigdaXiabgUcaRmaalaaabaGaemOuai1aa0baaSqaaiabdsha0bqaaiabigdaXiabigdaXiabgkHiTiabdogaJjabdMgaPjabdohaZbaaaOqaaiabdUealnaaDaaaleaacqWGKbazaeaacqaIXaqmcqaIXaqmcqGHsislcqWGJbWycqWGPbqAcqWGZbWCaaaaaaGccaGLBbGaayzxaaaaaa@58DE@
The origin of the above expression is discussed in reviews dealing with competition assays. Substitution of equation 2 into equation 1 yields the following expression.
Fenh=C1+C2[Rtall−trans−(Rtall−trans+NPt+Kdall−trans+Kdall−transRt11−cis/Kd11−cis)^2−4NPtRtall−trans] MathType@MTEF@5@5@+=feaafiart1ev1aaatCvAUfKttLearuWrP9MDH5MBPbIqV92AaeXatLxBI9gBaebbnrfifHhDYfgasaacH8akY=wiFfYdH8Gipec8Eeeu0xXdbba9frFj0=OqFfea0dXdd9vqai=hGuQ8kuc9pgc9s8qqaq=dirpe0xb9q8qiLsFr0=vr0=vr0dc8meaabaqaciaacaGaaeqabaqabeGadaaakeaacqWGgbGrdaWgaaWcbaGaemyzauMaemOBa4MaemiAaGgabeaakiabg2da9iabdoeadnaaBaaaleaacqaIXaqmaeqaaOGaey4kaSIaem4qam0aaSbaaSqaaiabikdaYaqabaGcdaWadaqaaiabdkfasnaaDaaaleaacqWG0baDaeaacqWGHbqycqWGSbaBcqWGSbaBcqGHsislcqWG0baDcqWGYbGCcqWGHbqycqWGUbGBcqWGZbWCaaGccqGHsisldaGcaaqaamaabmaabaGaemOuai1aa0baaSqaaiabdsha0bqaaiabdggaHjabdYgaSjabdYgaSjabgkHiTiabdsha0jabdkhaYjabdggaHjabd6gaUjabdohaZbaakiabgUcaRiabd6eaojabdcfaqnaaBaaaleaacqWG0baDaeqaaOGaey4kaSIaem4saS0aa0baaSqaaiabdsgaKbqaaiabdggaHjabdYgaSjabdYgaSjabgkHiTiabdsha0jabdkhaYjabdggaHjabd6gaUjabdohaZbaakiabgUcaRmaalaaabaGaem4saS0aa0baaSqaaiabdsgaKbqaaiabdggaHjabdYgaSjabdYgaSjabgkHiTiabdsha0jabdkhaYjabdggaHjabd6gaUjabdohaZbaakiabdkfasnaaDaaaleaacqWG0baDaeaacqaIXaqmcqaIXaqmcqGHsislcqWGJbWycqWGPbqAcqWGZbWCaaaakeaacqWGlbWsdaqhaaWcbaGaemizaqgabaGaeGymaeJaeGymaeJaeyOeI0Iaem4yamMaemyAaKMaem4CamhaaaaaaOGaayjkaiaawMcaamaaCaaaleqabaGaeGOmaidaaOGaeyOeI0IaeGinaqJaemOta4Kaemiuaa1aaSbaaSqaaiabdsha0bqabaGccqWGsbGudaqhaaWcbaGaemiDaqhabaGaemyyaeMaemiBaWMaemiBaWMaeyOeI0IaemiDaqNaemOCaiNaemyyaeMaemOBa4Maem4CamhaaaqabaaakiaawUfacaGLDbaaaaa@A768@

Read-outs that look alike come from different tables or passages of the source.

T1 sequence (Q7SZI7 23-1219): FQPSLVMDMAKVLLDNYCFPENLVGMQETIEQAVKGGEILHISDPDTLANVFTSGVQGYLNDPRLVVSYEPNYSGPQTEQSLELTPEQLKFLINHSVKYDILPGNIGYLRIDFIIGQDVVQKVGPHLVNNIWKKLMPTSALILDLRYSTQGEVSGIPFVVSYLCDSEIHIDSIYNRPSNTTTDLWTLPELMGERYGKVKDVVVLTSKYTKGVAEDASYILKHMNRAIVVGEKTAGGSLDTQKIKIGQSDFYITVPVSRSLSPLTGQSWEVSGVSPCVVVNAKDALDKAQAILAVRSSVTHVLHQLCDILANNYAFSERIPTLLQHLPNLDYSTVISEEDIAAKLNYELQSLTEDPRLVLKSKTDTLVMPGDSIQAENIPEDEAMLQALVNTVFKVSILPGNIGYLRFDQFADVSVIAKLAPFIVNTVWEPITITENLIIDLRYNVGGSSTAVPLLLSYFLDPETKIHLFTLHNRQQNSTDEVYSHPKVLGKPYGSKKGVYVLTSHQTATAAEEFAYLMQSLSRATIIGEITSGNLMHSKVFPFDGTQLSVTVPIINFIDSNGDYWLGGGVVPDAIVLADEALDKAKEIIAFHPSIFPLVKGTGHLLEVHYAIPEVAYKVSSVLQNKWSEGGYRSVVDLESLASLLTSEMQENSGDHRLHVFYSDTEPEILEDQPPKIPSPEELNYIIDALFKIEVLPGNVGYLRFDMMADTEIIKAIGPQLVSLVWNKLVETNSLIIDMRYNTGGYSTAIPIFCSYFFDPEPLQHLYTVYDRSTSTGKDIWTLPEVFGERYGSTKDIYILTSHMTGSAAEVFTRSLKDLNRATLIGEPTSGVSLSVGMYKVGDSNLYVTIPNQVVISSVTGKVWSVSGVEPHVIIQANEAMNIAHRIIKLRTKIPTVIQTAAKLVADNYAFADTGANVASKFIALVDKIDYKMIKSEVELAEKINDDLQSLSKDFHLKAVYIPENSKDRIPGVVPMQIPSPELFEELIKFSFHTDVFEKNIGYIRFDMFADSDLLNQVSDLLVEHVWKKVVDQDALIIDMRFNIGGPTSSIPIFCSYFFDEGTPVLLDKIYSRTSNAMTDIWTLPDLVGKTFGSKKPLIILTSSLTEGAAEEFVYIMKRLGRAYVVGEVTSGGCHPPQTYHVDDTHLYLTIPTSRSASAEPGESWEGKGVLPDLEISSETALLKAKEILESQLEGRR

Take `CC1=C(/C=C/C(C)=C/C=C/C(C)=C/C=O)C(C)(C)CCC1` [11-cis retinal]: in assay [1] (quenching of protein fluorescence by 11-cis retinaldehyde, ex 280 nm, em 340 nm), the “Binding sites (N), Quenching” value was found to be 1.81 ± 0.15. Also, the Kd – broadly, the constant that tells how readily two partners part at equilibrium – turned out to be 280 ± 50 nM in assay [1] (quenching of protein fluorescence by 11-cis retinaldehyde, ex 280 nm, em 340 nm, read-out: Kd 11-cis, Quenching) and 560 ± 110 nM in assay [2] (competition with all-trans retinol, read-out: Kd 11-cis retinal). The “Binding sites (N)” value in assay [2] (competition, shared sites) came to 1.90 ± 0.28.

On to `CC1=C(/C=C/C(C)=C/C=C/C(C)=C/CO)C(C)(C)CCC1` [all-trans retinol], for which the “Binding sites (N), Enhancement” value in assay [1] (all-trans retinol fluorescence enhancement, ex 330 nm, em 480 nm, IRBP 0.65 μM) stood at 3.19 ± 0.10. Also, the dissociation constant Kd in assay [1] (all-trans retinol fluorescence enhancement, ex 330 nm, em 480 nm, IRBP 0.65 μM, read-out: Kd, Enhancement) is 300 ± 50 nM; in assay [1] (all-trans retinol, energy transfer, ex 280 nm, em 480 nm, read-out: Kd, energy transfer), 290 ± 120 nM; in assay [1] (quenching of protein fluorescence by all-trans retinol, ex 280 nm, em 340 nm, read-out: Kd, Quenching), 660 ± 140 nM; in assay [1] (summary statement of the abstract, read-out: Kd (summary)), 200 to 300 nM; in assay [2] (competition, in presence of 11-cis retinal, read-out: Kd All-trans retinol), 840 ± 220 nM. Further, in assay [1] (all-trans retinol, energy transfer, ex 280 nm, em 480 nm), the “Binding sites (N), energy transfer” value is on record as 3.72 ± 0.20. Besides, the “Binding sites (N), Quenching” value in assay [1] (quenching of protein fluorescence by all-trans retinol, ex 280 nm, em 340 nm) was 1.93 ± 0.41.

The values above are taken from PMC2000878, “Module structure of interphotoreceptor retinoid-binding protein (IRBP) may provide bases for its complex role in the visual cycle – structure/function study of Xenopus IRBP” (BMC Biochemistry, 2007).
